Measurements published in patent publication US20220226283A1, “COMBINATION PRODUCT CONTAINING LIMONOID COMPOUND AND DPP-4 INHIBITOR” (ZHEJIANG YANGSHENGTANG INSTITUTE OF NATURAL MEDICATION CO., …, priority 2019, published 2022).

Assays:
Format in all cases: in vivo
db/db mice [1] = test: Blood glucose in mouse type II diabetes model (limonoid compound, saxagliptin or combination); settings: single administration 0.04 g/kg per day by gavage, two weeks, 1 h after the last administration, mean ± SD
Description: (§1) In the present example, db/db mice (line name BKS.Cg-Dock7^m+/+Lepr^db/Nju) were used to perform hypoglycemic efficacy evaluation test of animals (blood glucose level and leptin). The limonoid compound was selected from obacunone, isoobacunoic acid and obacunone glycoside, and saxagliptin single administration group, obacunone single administration group, isoobacunoic acid single administration group, obacunone glycoside single administered group, and respective combination thereof with saxagliptin administration groups were set.
(§2) Conditions for experimental feeding: as type II diabetes model mice, 6-week-old SPF-grade db/db mice were purchased from the Nanjing Model Biology Institute, and subjected to experimental feeding after 7 days of preliminary feeding. It should be noted that the conditions for raising the mice were as follows: the temperature was 23±1° C., the humidity was 55±10%, the lights were turned on between 7 am and 7 pm (the lights were turned off at other time), and the mice were allowed to freely take in water and feed. The experimental feed was mouse growth-stable feed (GB M2118), and the daily feeding and management of the animals were under the responsibility of the animal security department, which provided the animals with sufficient diet and fresh drinking water daily.
Experimental grouping: male db/db mice (20±2 g) were selected, and 18 male mice in each group were tested. The experimental groups included normal control group (db/m, n=18), model group (db/db, n=18), obacunone group (db/db, n=18), isoobacunoic acid group (db/db, n=18), obacunone glycoside group (db/db, n=18), saxagliptin group (db/db, n=18), obacunone/saxagliptin combination group (db/db, n=18), isoobacunoic acid/saxagliptin combination group (db/db, n=18), obacunone glycoside/saxagliptin combination group (db/db, n=18). […]

db/db mice [2] = test: Serum insulin (Elisa) in mouse type II diabetes model (limonoid compound, linagliptin or combination); settings: single administration 0.2 g/kg per day by gavage, two weeks, mean ± SD
Description: (§3) In the present embodiment, the limonoid compound was selected from nomilin, deacetylnomilin, nomilin acid, deacetylnomilin acid glycoside, and linagliptin single administration group, nomilin single administration group, deacetylnomilin single administration group, nomilin acid single administered group, deacetylnomilin acid glycoside single administration group, and respective combination thereof with linagliptin administration groups were set.
as §2
(§4) Experimental grouping: male db/db mice (20±2 g) were selected, 18 male mice in each group were tested, and drinking bottles were sterilized weekly. […]

db/db mice [3] = test: Blood glucose in mouse type II diabetes model (limonoid compound, linagliptin or combination); settings: single administration 0.2 g/kg per day by gavage, two weeks, 1 h after the last administration, mean ± SD
Description: as §3, §2, §4

db/db mice [4] = test: Serum leptin (Elisa) in mouse type II diabetes model (limonoid compound, saxagliptin or combination); settings: single administration 0.04 g/kg per day by gavage, two weeks, mean ± SD
Description: as §1
as §2, with “daily. […]” for “daily.”

[5] = test system: mouse pancreatic islet β-cell injury model (ICR mice modeled with streptozotocin); test: Blood glucose in mouse pancreatic islet β-cell injury model (limonoid compound, sitagliptin or combination); settings: STZ mice, single administration 0.02 g/kg per day by gavage, two weeks, 1 h after the last administration, mean ± SD
Description: In this example, a mouse pancreatic islet β-cell injury model was established by modeling ICR mice with streptozotocin (STZ) (Li Nan et al., Protective effect of pine pollen on kidney damage in diabetic nephropathy mice, Science and Technology Review, 2014, 32 (4/5): 95-99), and used to complete the evaluation of hypoglycemic effect in animals (this model could simulate pancreatic islet β-cell damage state of type I and type II diabetics). The limonoid compound was selected from the group consisting of limonin, isolimonic acid, limonin glycoside, and isolimonic acid glycoside, and sitagliptin single administration group, limonin single administration group, isolimonic acid single administration group, limonin glycoside singe administration group, isolimonic acid glycoside singe administration group, and respective combination thereof with sitagliptin administration groups were set. Conditions of experimental feeding: ICR mice (20±2 g), aged 6 weeks, purchased from Zhejiang Academy of Medical Sciences, and subjected to experimental feeding after 7 days of preliminary feeding. […] The data were expressed as mean and standard deviation. The data before and after were analyzed by t-test, and P<0.05 was considered statistically significant.

[6] = test system: mouse pancreatic islet β-cell injury model (ICR mice modeled with streptozotocin); test: Blood glucose in mouse pancreatic islet β-cell injury model (limonoid compound, vildagliptin or combination); settings: STZ mice, single administration 0.1 g/kg per day by gavage, two weeks, 1 h after the last administration, mean ± SD
Method: as §2, with “It” for “Conditions for experimental feeding: as type II diabetes model mice, 6-week-old SPF-grade db/db mice were purchased from the Nanjing Model Biology Institute, and subjected to experimental feeding after 7 days of preliminary feeding. It”
SPSS 16.0 software was used for statistical analysis. The data were expressed as mean and standard deviation. The data before and after were analyzed by t-test, and P<0.05 was considered statistically significant.

CC1(C)O[C@@H](CC(=O)O)[C@]2(C)[C@H]3CC[C@@]4(C)[C@H](c5ccoc5)OC(=O)[C@H]5O[C@]54[C@]3(C)C(=O)C[C@@H]12 [Isoobacunoic acid, isoobacunoic acid]
Blood glucose value (db/db mice [1]): 14.6 ± 3.1 mmol/L

CC#CCn1c(N2CCC[C@@H](N)C2)nc2c1c(=O)n(Cc1nc(C)c3ccccc3n1)c(=O)n2C [Linagliptin, linagliptin]
Insulin (db/db mice [2]): 8.00 ± 1.94 pg/mL
Blood glucose value (db/db mice [3]): 11.9 ± 2.1 mmol/L

CC1(C)OC(=O)C=C[C@]2(C)[C@H]3CC[C@@](C)([C@@H](O[C@@H]4O[C@H](CO)[C@@H](O)[C@H](O)[C@H]4O)c4ccoc4)[C@@]4(O[C@@H]4C(=O)O)[C@]3(C)C(=O)C[C@@H]12 [Obacunone glycoside, obacunone glycoside]
Blood glucose value (db/db mice [1]): 13.6 ± 2.9 mmol/L

N#C[C@@H]1C[C@@H]2C[C@@H]2N1C(=O)[C@@H](N)C12CC3CC(CC(O)(C3)C1)C2 [Saxagliptin, saxagliptin]
Leptin (db/db mice [4]): 32.52 ± 5.11 pg/mL
Blood glucose value (db/db mice [1]): 13.9 ± 3.5 mmol/L

N[C@@H](CC(=O)N1CCn2c(nnc2C(F)(F)F)C1)Cc1cc(F)c(F)cc1F [Sitagliptin, sitagliptin]
Blood glucose value [5]: 21.7 ± 4.9 mmol/L

N#C[C@@H]1CCCN1C(=O)CNC12CC3CC(CC(O)(C3)C1)C2 [Vildagliptin, vildagliptin]
Blood glucose value [6]: 16.9 ± 2.6 mmol/L
